Assay results reported in US11667784B2, “Copolymers including cinchona alkaloid components and one or more acrylamide or acrylate containing components, complexes containing the same, and methods of using the” (REGENTS OF THE UNIVERSITY OF MINNESOTA, priority 2017, dated 2023).

Assays:
HeLa cells = assay type: cell-based, human
Excerpt: Transfection with the acrylate copolymer poly(HEA-co-acrylate), however, provided more promising results. […] Transfection studies with the HEA copolymer will continue at higher N/P ratios in hope of achieving transfection efficiency similar to that of PEI while maintaining limited toxicity.

[1] = cited from earlier work
plasmid DNA = test: DNA binding by gel electrophoresis (gel shift assay); settings: plasmid DNA 4.7 kb, equivalent molar ratios to HEA-quinine copolymer
Procedure: DNA Binding Studies by Gel Electrophoresis. After the 1 hour incubation period, the polyplex solutions of all N/P ratios (10 μL) were each mixed with a 30% glycerol solution in water (2 μL). The solutions were loaded into 0.6% agarose gel containing ethidium bromide (6 μL/100 mL TAE buffer) and run at 60 V for 60 minutes. The gel was visualized under UV transilluminator (λ=366 nm).
The first step in this process is to mix the polymer and pDNA together to form the polyplex. […] Once combined, the solution is left to incubate at room temperature for 1 hour. Polyplexes are formed with varying concentrations of polymer to DNA which are expressed by their N/P ratio. The N/P ratio expresses the molar ratio of cationic amine groups on the polymer (N) over the number of anionic phosphate groups of the DNA backbone (P). […]
Upon a slow addition of an aqueous polymer solution to an aqueous DNA solution (0.02 μg/μL) at a 1:1 v/v ratio, the polymer and DNA self-assemble to form polyplexes. The target concentration of the polymer in the polyplex solution was determined by the target N/P ratio which is the molar ratio of cationic amine groups on the polymer (N) to anionic phosphate groups of the DNA backbone (P). […]

poly(HEA-co-quinine) [HEA copolymer]
toxicity (qualitative inspection) (HeLa cells): much less toxic

C=C(C)C(=O)NCCN [AEMA, N-(2-aminoethyl) methacrylamide]
pKa of basic amine ([1]; basic tertiary amine of chloroquine and quinine, amine of AEMA): 9.3

C=C[C@H]1C[N@@]2CC[C@H]1C[C@H]2[C@H](O)c1ccnc2ccc(OC)cc12 [quinine]
ability to bind DNA in gel shift assay (plasmid DNA): inability | pKa of quinoline nitrogen ([1]; 4-aminoquinoline nitrogen of chloroquine vs quinoline nitrogen of quinine): 5.2
